Reference: patent US12419888B2, “Methods of treating elevated plasma cholesterol” (INSTITUT DE CARDIOLOGIE DE MONTREAL, priority 2020, dated 2025)

test system: LDLR protein levels in HepG2 cells; assay: Western blot analysis of relative LDLR protein levels in HepG2 cells after treatment; format: cell-based, human; details: HepG2 cells incubated overnight with compound, 0.2 μM to 20 μM
Procedure: Cell culture, treatments and cell viability assay. For phenotypic screening of PCSK9 modulators and/or LDLR small molecule inducers, human HepG2 cells were incubated overnight in conditioned media containing chemical compounds resuspended in DMSO at concentration ranging from 0.2 μM to 20 μM. […] Following incubation, media have been replaced and cells incubated for 4 h with 100 μL of phenol red-free DMEM containing 0.5 mg/mL of MTT (3-[4,5-dimethylthiazol-2-yl]-2,5-diphenyltetrazolium bromide; thiazolyl blue; catalog no. M5655, Sigma-Aldrich), following manufacturer's instructions.
Western Blot Analysis, Immunocytochemistry and LDLR Activity Assay. Following incubation, cells were washed three times in phosphate-buffered saline (PBS) and lysed in radioimmune precipitation assay buffer (50 mM Tris/HCl, pH 8.0, 1% (v/v) Nonidet P-40, 0.5% sodium deoxycholate, 150 mM NaCl, and 0.1% (v/v) SDS) supplemented with a complete protease inhibitor mixture (catalog no. 11 697 498 001, Roche Applied Science). Proteins were separated by SDS polyacrylamide gel electrophoresis, blotted on nitrocellulose membranes (Bio-Rad), blocked incubated with indicated antibodies as described (Poirier S, et al., Cell Rep, 2015). For immunocytochemistry analysis, cells were permeabilized or not with 0.1% Triton X-100/PBS for 10 min, and incubated with 150 mM glycine, blocked and incubated with indicated primary and secondary antibodies. Immunofluorescence analyses were performed with an Olympus FluoView FV10i confocal microscope (Poirier et al., Cell Rep. 2015; 13(10):2064-2071). For LDLR activity assay, HepG2 cells were incubated overnight without or with a given compound in the presence of 5 μg/ml fluorescent labelled DiI-LDL (Alfa Aesar, Cat. #J65330) and co-stained for LDLR if applicable, as described (Poirier et al., J Biol Chem. 2009; 284(42):28856-28864). Immunofluorescence analyses were performed with an Olympus FluoView FV10i confocal microscope.

Compound | LDLR Fold (relative LDLR protein levels)
3-(1,3-benzodioxol-5-yl)-1-[(1S)-1-(6-methylpyridin-2-yl)-1,3,4,9-tetrahydropyrido[3,4-b]indol-2-yl]propan-1-one [Compound 23] | 1.2 Fold
CCOc1cccc([C@@H]2CC(c3ccc(C)cc3)=NC3(CCN(C(C)=O)CC3)N2)c1O (stereo in doubt) [Compound 3, 1-[4-(3-ethoxy-2-hydroxyphenyl)-2-(4-methylphenyl)-1,5,9-triazaspiro[5.5]undec-1-en-9-yl]ethan-1-one] | 1.8 ± 0.6 Fold
CN1C(=O)c2cc(C(=O)N3CCN(c4ccccc4)CC3)nn2C[C@]1(C)C(=O)NC1CCCCCC1 (stereo in doubt) [Compound 5, N-cycloheptyl-5,6-dimethyl-4-oxo-2-(4-phenylpiperazine-1-carbonyl)-4H,5H,6H,7H-pyrazolo[1,5-a]pyrazine-6-carboxamide] | 0.8 ± 0.0 Fold
O=C(NCCc1c[nH]c2ccccc12)c1ccc2c(c1)NC(=O)[C@H]1CCCCN21 (stereo in doubt) [Compound 8, N-[2-(1H-indol-3-yl)ethyl]-6-oxo-5,6a,7,8,9,10-hexahydropyrido[1,2-a]quinoxaline-3-carboxamide] | 1.0 ± 0.2 Fold
COc1ccc2cc([C@]3(C)NC(=O)N(CC(=O)N4CCC[C@@H]5CCCC[C@@H]54)C3=O)ccc2c1 (stereo in doubt) [Compound 15, 3-[2-(decahydroquinolin-1-yl)-2-oxoethyl]-5-(6-methoxynaphthalen-2-yl)-5-methylimidazolidine-2,4-dione] | 1.1 ± 0.6 Fold
C[C@@]1(c2ccc3ccccc3c2)NC(=O)N(CC(=O)N2CCC[C@@H]3CCCC[C@@H]32)C1=O (stereo in doubt) [Compound 17, 3-[2-(decahydroquinolin-1-yl)-2-oxoethyl]-5-methyl-5-(naphthalen-2-yl)imidazolidine-2,4-dione] | 1.2 ± 0.6 Fold
CC[C@@H]1CCCCN1C(=O)CN1C(=O)N[C@@](C)(c2ccc3ccccc3c2)C1=O (stereo in doubt) [Compound 18, 3-[2-(2-ethylpiperidin-1-yl)-2-oxoethyl]-5-methyl-5-(naphthalen-2-yl)imidazolidine-2,4-dione] | 1.4 ± 0.7 Fold
C[C@@]1(c2ccc3ccccc3c2)NC(=O)N(CC(=O)N2CCC(Cc3ccccc3)CC2)C1=O (stereo in doubt) [Compound 19, 3-[2-(4-benzylpiperidin-1-yl)-2-oxoethyl]-5-methyl-5-(naphthalen-2-yl)imidazolidine-2,4-dione] | 1.0 ± 0.5 Fold
Cc1cccc([C@@H]2c3[nH]c4ccccc4c3CCN2C(=O)CCN2CCCCC2=O)n1 (stereo in doubt) [Compound 20, 1-{3-[1-(6-methylpyridin-2-yl)-1H,2H,3H,4H,9H-pyrido[3,4-b]indol-2-yl]-3-oxopropyl}piperidin-2-one] | 1.4 Fold
CC(C)(O)C#Cc1cccc(C(=O)N2CCc3c([nH]c4ccccc34)[C@H]2c2ccccn2)c1 (stereo in doubt) [Compound 21, 2-methyl-4-{3-[1-(pyridin-2-yl)-1H,2H,3H,4H,9H-pyrido[3,4-b]indole-2-carbonyl]phenyl}but-3-yn-2-ol] | 1.0 Fold
Cc1ccc2c(CC(=O)N3CCc4c([nH]c5ccccc45)[C@H]3c3ccccn3)cc(=O)oc2c1 (stereo in doubt) [Compound 22, 7-methyl-4-{2-oxo-2-[1-(pyridin-2-yl)-1H,2H,3H,4H,9H-pyrido[3,4-b]indol-2-yl]ethyl}-2H-chromen-2-one] | 1.4 Fold
Cc1cccc([C@H]2c3[nH]c4ccccc4c3CCN2C(=O)C(=O)CCc2ccccc2)n1 (stereo in doubt) [Compound 24, 1-[1-(6-methylpyridin-2-yl)-1H,2H,3H,4H,9H-pyrido[3,4-b]indol-2-yl]-4-phenylbutane-1,2-dione] | 1.6 Fold
Cc1cccc([C@H]2c3[nH]c4ccccc4c3CCN2C(=O)CCc2ccccc2)n1 (stereo in doubt) [Compound 27, 1-[1-(6-methylpyridin-2-yl)-1H,2H,3H,4H,9H-pyrido[3,4-b]indol-2-yl]-3-phenylpropan-1-one] | 1.0 Fold
CC1=NC2=NC(NCCc3c[nH]c4ccccc34)=N[C@H](c3ccccc3)N2C(O)=C1 (stereo in doubt) [Compound 29, 2-{[2-(1H-indol-3-yl)ethyl]amino}-8-methyl-4-phenyl-4H-pyrimido[1,2-a][1,3,5]triazin-6-ol] | 0.9 Fold
CC1=NC2=NC(N3CCC(Cc4ccccc4)CC3)=N[C@H](c3ccccc3)N2C(O)=C1 (stereo in doubt) [Compound 30, 2-(4-benzylpiperidin-1-yl)-8-methyl-4-phenyl-4H-pyrimido[1,2-a][1,3,5]triazin-6-ol] | 0.6 Fold
CC1=NC2=NC(N3CCN(c4ccccc4)CC3)=N[C@H](c3ccc(Cl)cc3)N2C(O)=C1 (stereo in doubt) [Compound 31, 4-(4-chlorophenyl)-8-methyl-2-(4-phenylpiperazin-1-yl)-4H-pyrimido[1,2-a][1,3,5]triazin-6-ol] | 1.1 Fold
CC1=NC2=NC(N3CCC(Cc4ccccc4)CC3)=N[C@H](c3cccnc3)N2C(O)=C1 (stereo in doubt) [Compound 34, 2-(4-benzylpiperidin-1-yl)-8-methyl-4-(pyridin-3-yl)-4H-pyrimido[1,2-a][1,3,5]triazin-6-ol] | 1.0 Fold
O=C([C@H]1CCCO1)N1CCN(c2nnc(-c3ccccc3)c3ccccc23)CC1 (stereo in doubt) [Compound 42, 1-[4-(oxolane-2-carbonyl)piperazin-1-yl]-4-phenylphthalazine] | 0.6 Fold
Cc1ccc2nccc(C(=O)N3CCC[C@H](Cn4cc(C(C)(C)N)nn4)C3)c2c1 (stereo in doubt) [Compound 44, 2-[1-({1-[(6-methylquinolin-4-yl)carbonyl]piperidin-3-yl}methyl)-1H-1,2,3-triazol-4-yl]propan-2-amine] | 1.2 Fold
O=C(Nc1ccccc1)[C@H]1CCCN(C(=O)c2cc(C3CC3)nc3ccccc23)C1 (stereo in doubt) [Compound 45, 1-(2-cyclopropylquinoline-4-carbonyl)-N-phenylpiperidine-3-carboxamide] | 1.2 Fold
O=C(Nc1ccccc1)[C@H]1CCCN(C(=O)c2cc(-c3ccncc3)nc3ccccc23)C1 (stereo in doubt) [Compound 46, N-phenyl-1-[2-(pyridin-4-yl)quinoline-4-carbonyl]piperidine-3-carboxamide] | 1.1 Fold
COc1cc(C(=O)N2CCC[C@H](CNS(=O)(=O)c3cccs3)C2)c2ccccc2n1 (stereo in doubt) [Compound 48, N-{[1-(2-methoxyquinoline-4-carbonyl)piperidin-3-yl]methyl}thiophene-2-sulfonamide] | 1.0 Fold
Cc1cc(C(=O)N2CCC[C@H](c3ccc(C(=O)O)cc3)C2)c2ccc(F)cc2n1 (stereo in doubt) [Compound 49, 4-[1-(7-fluoro-2-methylquinoline-4-carbonyl)piperidin-3-yl]benzoic acid] | 1.6 Fold
Cc1cccc(C(=O)N2CCC[C@H](Cn3cc(C(C)(C)N)nn3)C2)c1C (stereo in doubt) [Compound 50, 2-(1-{[1-(2,3-dimethylbenzoyl)piperidin-3-yl]methyl}-1H-1,2,3-triazol-4-yl)propan-2-amine] | 1.1 Fold
COc1ccccc1[C@H]1N=C(N2CCC(Cc3ccccc3)CC2)N=C2N=C(C)C=C(O)N21 (stereo in doubt) [Compound 52, 2-(4-benzylpiperidin-1-yl)-4-(2-methoxyphenyl)-8-methyl-4H-pyrimido[1,2-a][1,3,5]triazin-6-ol] | 0.7 Fold
C[C@H](NC(=O)[C@@H]1Cc2c([nH]c3ccccc23)[C@H]2c3ccccc3C(=O)N21)C(=O)NC1CCCC1 [Compound 1, (2S)—N-cyclopentyl-2-{[(11 S)-9-oxo-10,20-diazapentacyclo[11.7.0.0^2,^10.0^3,^8.0^14,^19]icosa-1(13),3,5,7,14,16,18-heptaen-11-yl]formamido}propanamide] | 1.2 ± 0.2 Fold
Cc1nn(CC(=O)N2CCc3c([nH]c4ccccc34)[C@H]2c2ccccn2)c(=O)c2ccccc12 [Compound 2, 4-methyl-2-{2-oxo-2-[1-(2-pyridinyl)-1,3,4,9-tetrahydro-2H-beta-carbolin-2-yl]ethyl}-1(2H)-phthalazinone] | 1.0 ± 0.5 Fold
